Measurements: patent publication US6426349B1, “Substituted condensation products of N-benzyl-3-indenylacetamides with heterocyclic aldehydes for neoplasia” (Cell Pathway and the University of Arizona, priority 1997, dated 2002)
Counter-ions that a name gives are not always drawn.

Columns and labels:
[1] = test system: SW-480 colon adenocarcinoma cells; assay: Apoptosis by DNA fragmentation (Cell Death Detection ELISA plus); assay type: cell-based, human; conditions: for DNA Fragmentation FS (100 μM): fold stimulation FS=ODmax/ODveh; for DNA Fragmentation FS (100 μM) / EC50: SW-480 cells, 48 hrs; for Apoptosis Level (Mean OD Value ± SD): DNA fragmentation, SW-480
Protocol: Apoptosis was also measured based on the amount of fragmented DNA contained in cell lysates. Briefly, SW-480 colon adenocarcinoma cells were plated in 96-well microtitre plates (“MTP”) at a density of 10 K cells/well in 180 μl and were incubated for 24 hrs. Cells were then treated with 20 μl aliquots of appropriately diluted compound, and allowed to incubate for an additional 48 hrs.
After the incubation, samples were prepared according to the following steps. The MTP was centrifuged (15 min., 1000 rpm) and the supernatant was carefully removed by fast inversion of the MTP. The cell pellets in each well were resuspended in 200 μl lysis buffer and incubated for 45 min. at room temperature to lyse the cells. The lysates were then centrifuged (15 min., 1000 rpm) and 20 μl aliquots of the supernatant (=cytoplasmic fraction) were transferred into the streptavidin coated MTP for analysis. Care was taken not to shake the lysed pellets in the MTP (=cell nucleii containing high molecular weight, unfragmented DNA). Samples were analyzed immediately, because storage at 4C or −20C reduces the ELISA-signals.
Samples were then processed according to a DNA fragmentation assay protocol, and dose-response curves were generated based on optical density readings. Quantification of DNA was done by a commercially available photometric enzyme-immunoassay manufactured by Mannheim-Boehringer under the name “Cell Death Detection ELISA^plus”. The assay is based on a quantitative sandwich-enzyme-immunoassay-principle using mouse monoclonal antibodies directed against DNA and histones, respectively. This allows the specific determination of mono and oligonucleosomes in the cytoplasmatic fraction of cell lysates. In brief, the assay procedure is as follows. The sample (cell-lysate, serum, culture-supematant etc.) is placed into a streptavidin-coated MTP. Subsequently, a mixture of anti-histone-biotin and anti-DNA-POD is followed by incubation for 2 hours. During the incubation period, the anti-histone antibody binds to the histone-component of the nucleosomes and simultaneously fixes the immunocomplex to the streptavidin-coated MTP via its biotinylation. Additionally, the anti-DNA-POD antibody reacts with the DNA component of the nucleosomes. After removal of unbound antibodies by a washing step, the amount of nucleosomes is quantified by the POD retained in the immunocomplex. POD is determined photometrically with ABTS® (2,2′-Azino-di[3-ethylbenzthiazolin-sulfonat])* as substrate.
Fold stimulation (FS=ODmax/ODveh), an indicator of apoptotic response, was determined for each compound tested. EC50 values were determined either specifically by data analysis software, or by estimates based on the effective concentration range of each compound (ECR=min. effective dose-min. dose to peak effect). These FS and EC50 values for the tested compounds are listed above in Table 4.
In addition, using the DNA fragmentation test above, a dose response for the compound of Example 1 was obtained.

[2] = molecular target: T1, purified cyclooxygenase Type I (Ovis aries, UniProt P05979); assay: Cyclooxygenase (COX) inhibition, purified enzyme; assay type: biochemical; conditions: purified COX from ram seminal vesicles
T1 construct: The COX was purified from ram seminal vesicles; from tissue; host or cells: ram seminal vesicles
T1 sequence (P05979 25-600): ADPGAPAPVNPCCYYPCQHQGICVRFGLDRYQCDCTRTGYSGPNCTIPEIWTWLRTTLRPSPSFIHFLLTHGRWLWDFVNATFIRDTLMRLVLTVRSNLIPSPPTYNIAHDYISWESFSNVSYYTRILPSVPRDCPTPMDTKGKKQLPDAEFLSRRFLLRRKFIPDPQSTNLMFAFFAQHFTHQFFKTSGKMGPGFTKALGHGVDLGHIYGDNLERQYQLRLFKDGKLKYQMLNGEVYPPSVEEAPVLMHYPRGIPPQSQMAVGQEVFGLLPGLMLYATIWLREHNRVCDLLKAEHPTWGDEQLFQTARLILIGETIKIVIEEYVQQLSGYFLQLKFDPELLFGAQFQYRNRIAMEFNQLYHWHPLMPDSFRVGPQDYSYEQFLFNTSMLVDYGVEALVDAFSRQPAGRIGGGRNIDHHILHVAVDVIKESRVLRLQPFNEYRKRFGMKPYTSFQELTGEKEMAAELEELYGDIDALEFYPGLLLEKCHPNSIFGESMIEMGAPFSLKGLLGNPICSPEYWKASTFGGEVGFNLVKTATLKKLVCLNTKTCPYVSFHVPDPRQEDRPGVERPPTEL
Protocol: COX catalyzes the formation of prostaglandins and thromboxane by the oxidative metabolism of arachidonic acid. The compound of Example 1 of this invention, as well as a positive control, (sulindac sulfide) were evaluated to determine whether they inhibited purified cyclooxygenase Type I (see Table 3 below).
The compounds of this invention were evaluated for inhibitory effects on purified COX. The COX was purified from ram seminal vesicles, as described by Boopathy, R. and Balasubramanian, J., 239:371-377, 1988. COX activity was assayed as described by Evans, A. T., et al., “Actions of Cannabis Constituents on Enzymes Of Arachidonate Metabolism Anti-Inflammatory Potential,” Biochem. Pharmacol., 36:2035-2037, 1987. Briefly, purified COX was incubated with arachidonic acid (100 μM) for 2.0 min at 37° C. in the presence or absence of test compounds. The assay was terminated by the addition of TCA, and COX activity was determined by absorbance at 530 nm.

[3] = test system: HT-29 human colon carcinoma cells; assay: Apoptosis by morphology (acridine orange/ethidium bromide fluorescent microscopy); assay type: cell-based; conditions: HT-29 cells
Protocol: Apoptosis was measured using an assay of cell death based on morphological characteristics of apoptotic cells (i.e., condensed chromatin). Drug preparation and cell culture conditions were the same as for the SRB assay described above, except that HT-29 human colon carcinoma cells were used. Confluent cultures were established in 12.5 cm^2 flasks by plating 0.5×10^6 cells/flask. The cultures were assayed for apoptosis by fluorescent microscopy following labeling with acridine orange and ethidium bromide. Floating and attached cells were collected by trypsinization and washed three times in PBS. One ml aliquots were centrifuged (3 g). The pellet was resuspended in 25 μl media and 1 μl of a dye mixture containing 100 μg/ml acridine orange and 100 μg/ml ethidium bromide prepared in PBS and mixed gently. Ten μl of the mixture was placed on a microscope slide and covered with a 22 mm^2 coverslip, was examined with 40x dry objectives under epillumination by filter combination.
An observer blinded in regard to the identity of the samples scored at least 100 cells per sample. Apoptotic cells were identified by nuclear condensation of chromatin stained by the acridine orange or ethidium bromide.

[4] = test system: human colon carcinoma cell line, SW-480; assay: Sulforhodamine B (SRB) tumor cell growth inhibition assay; assay type: cell-based; conditions: SW480, 144 h, SW-480 cell line, six days continuous exposure
Protocol: The compound of Example 1 was assayed for its growth inhibitory activity on the human colon carcinoma cell line, SW-480 obtained from ATCC (Rockville, Md.), to ascertain the degree of growth inhibition. Growth inhibition of this cell line is indicative of a benefit on precancerous lesions and neoplasms. The cell line and growth assay employed for such experiments are well characterized, and are used to evaluate the anti-neoplastic properties of NSAIDs. The assay is used by the United States National Cancer Institute in its screening program for new anti-cancer drugs.
Drug stock solutions were made in 100% DMSO and were then diluted with RPMI media for cell culture testing. All drug solutions were prepared fresh on the day of testing. The cultured cells were obtained at passage #99 and grown in RPMI media supplemented with 5% fetal calf serum, and 2 mM glutamine, 100 U/ml penicillin, […] streptomycin, and 0.25 μg/ml amphotericin. The cultures were maintained in a humidified atmosphere of 95% air and 5% CO2 at 37° C. […]
Tumor cell growth inhibition was assessed using the Sulforhodamine B (SRB) protein binding assay. […] The dye was then solubilized, and the optical density of the resulting solution was determined on a 96-well plate reader. […]
For each experiment, an IC50 value was determined and used for comparative purposes. […]

SMILES: CC1=C(CC(=O)NCc2ccccc2)c2cc(F)ccc2/C1=C\c1ccncc1 [Example 1, (Z)-5-Fluoro-2-Methyl-(4-Pyridinylidene)-3-(N-Benzyl)-Indenylacetamide]
- DNA Fragmentation FS (100 μM) [1]: 4.2
- EC50 ([1]; Homo sapiens, SW480): 29 µM
- Apoptosis Level (Mean OD Value ± SD) ([1]; dose 0.5 μM): 0.186 ± 0.008
- Apoptosis Level (Mean OD Value ± SD) ([1]; dose 1.0 μM): 0.207 ± 0.061
- Apoptosis Level (Mean OD Value ± SD) ([1]; dose 5.0 μM): 0.208 ± 0.073
- Apoptosis Level (Mean OD Value ± SD) ([1]; dose 10 μM): 0.296 ± 0.050
- Apoptosis Level (Mean OD Value ± SD) ([1]; dose 50 μM): 0.500 ± 0.048
- Apoptosis Level (Mean OD Value ± SD) ([1]; dose 100 μM): 0.633 ± 0.053
- Apoptosis Level (Mean OD Value ± SD) ([1]; dose 500 μM): 0.659 ± 0.012
- inhibition at 100 µM [2]: < 25%
- Morphology % Apoptotic Cells (1 μM) [3]: 88%
- IC50 [4]: 0.724 µM

SMILES: CC1=C(CC(=O)NCc2ccccc2)c2cc(F)ccc2/C1=C\c1cccnc1 [Example 2, (Z)-5-Fluoro-2-Methyl-(3-Pyridinylidene)-3-(N-Benzyl)-Indenylacetamide]
- DNA Fragmentation FS (100 μM) [1]: 5.4

SMILES: CC1=C(CC(=O)NCc2ccccc2)c2cc(F)ccc2/C1=C\c1ccccn1 [Example 3, (Z)-5-Fluoro-2-Methyl-(2-Pyridinylidene)-3-(N-Benzyl)-Indenylacetamide]
- DNA Fragmentation FS (100 μM) [1]: 8.5

SMILES: CC1=C(CC(=O)NCc2ccccc2)c2cc(F)ccc2/C1=C\c1ccnc2ccccc12 [Example 4, (Z)-5-Fluoro-2-Methyl-(4-Quinolinylidene)-3-(N-Benzyl)-Indenylacetamide]
- DNA Fragmentation FS (100 μM) [1]: 3.9

SMILES: CC1=C(CC(=O)NCc2ccccc2)c2cc(F)ccc2/C1=C\c1ccncc1 [Example 38, (Z)-5-Fluoro-2-Methyl-(4-Pyridylidene)-3-(N-Benzyl) Indenylacetamide Hydrochloride]
- EC50 [1]: 15 µM
